Reference: PubChem BioAssay (NCI)
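Values below derive from 48-hour exposures of cells grown in 96-well plates, with endpoints linearly interpolated between the two concentrations bracketing the appropriate inhibition level. GI50 marks 50% less growth. Definition used: TGI = concentration required for complete inhibition of growth.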

Tests used:
Experiment in all cases: NCI tumour cell line growth inhibition, 48 h
[1] = tested on: 786-0 renal
[2] = tested on: A498 renal
[3] = tested on: A549 NSCLC
[4] = tested on: ACHN renal
[5] = tested on: BT-549 breast
[6] = tested on: CAKI-1 renal
[7] = tested on: CCRF-CEM leukemia
[8] = tested on: COLO 205 colon
[9] = tested on: DU-145 prostate
[10] = tested on: EKVX NSCLC
[11] = tested on: HCC-2998 colon
[12] = tested on: HCT-116 colon
[13] = tested on: HCT-15 colon
[14] = tested on: HOP-62 NSCLC
[15] = tested on: HOP-92 NSCLC
[16] = tested on: HS 578T breast
[17] = tested on: HT29 colon
[18] = tested on: IGROV1 ovarian
[19] = tested on: KM12 colon
[20] = tested on: LOX IMVI melanoma
[21] = tested on: M14 melanoma
[22] = tested on: MALME-3M melanoma
[23] = tested on: MCF7 breast
[24] = tested on: MDA-MB-231 breast
[25] = tested on: MDA-MB-435
[26] = tested on: MOLT-4 leukemia
[27] = tested on: NCI-H226 lung
[28] = tested on: NCI-H23 lung
[29] = tested on: NCI-H460 lung
[30] = tested on: NCI-H522 lung
[31] = tested on: NCI/ADR-RES ovarian
[32] = tested on: OVCAR-3 ovarian
[33] = tested on: OVCAR-4 ovarian
[34] = tested on: OVCAR-5 ovarian
[35] = tested on: OVCAR-8 ovarian
[36] = tested on: PC-3 prostate
[37] = tested on: RPMI-8226 leukemia
[38] = tested on: RXF 393 renal
[39] = tested on: SF-268 CNS
[40] = tested on: SF-295 CNS
[41] = tested on: SF-539 CNS
[42] = tested on: SK-MEL-2 melanoma
[43] = tested on: SK-MEL-28 melanoma
[44] = tested on: SK-MEL-5 melanoma
[45] = tested on: SK-OV-3 ovarian
[46] = tested on: SN12C renal
[47] = tested on: SNB-19 CNS
[48] = tested on: SNB-75 CNS
[49] = tested on: SR leukemia
[50] = tested on: SW-620 colon
[51] = tested on: T-47D breast
[52] = tested on: TK-10 renal
[53] = tested on: U251 CNS
[54] = tested on: UACC-257 melanoma
[55] = tested on: UACC-62 melanoma
[56] = tested on: UO-31 renal
[57] = tested on: HL-60(TB) leukemia
[58] = tested on: K-562 leukemia

O=C(CN(/C=C/C(=O)C(F)(F)F)c1ccc(Cl)cc1)c1ccc(Cl)c(Cl)c1 showed a GI50 [1] of 11.5 µM, a TGI [1] of 24.5 µM and a GI50 [2] of 3.65 µM. For the same compound, the TGI [2] was 16.7 µM, the GI50 [3] was 7.09 µM and the TGI [3] was 21.5 µM. For the same compound, the GI50 [4] was 2.48 µM, the TGI [4] was 9.74 µM and the GI50 [5] was 16.7 µM. The TGI [5] was 33.3 µM, the GI50 [6] was 3.61 µM and the TGI [6] was 12.7 µM. The GI50 [7] was 3.41 µM, the TGI [7] was 11 µM and the GI50 [8] was 14.2 µM. For the same compound, the TGI [8] was 39.4 µM, the GI50 [9] was 16.7 µM and the TGI [9] was 33.4 µM. It also gave a GI50 [10] of 14.5 µM, a TGI [10] of 29.3 µM and a GI50 [11] of 12.6 µM. For the same compound, the TGI [11] was 26.2 µM, the GI50 [12] was 3.54 µM and the TGI [12] was 13.2 µM. The GI50 [13] was 4.24 µM, the TGI [13] was 17.2 µM and the GI50 [14] was 11.5 µM. For the same compound, the TGI [14] was 23.8 µM, the GI50 [15] was 3.21 µM and the TGI [15] was 14.5 µM. It also gave a GI50 [16] of 16.6 µM, a TGI [16] of 38.3 µM and a GI50 [17] of 3.96 µM. For the same compound, the TGI [17] was > 100 µM, the GI50 [18] was 6.8 µM and the TGI [18] was 22.1 µM. The GI50 [19] was 2.62 µM, the TGI [19] was 10.8 µM and the GI50 [20] was 4.13 µM. For the same compound, the TGI [20] was 16.6 µM, the GI50 [21] was 6.51 µM and the TGI [21] was 19.3 µM. The GI50 [22] was 9.98 µM, the TGI [22] was 22.3 µM and the GI50 [23] was 3.42 µM. For the same compound, the TGI [23] was 16.6 µM, the GI50 [24] was 7.05 µM and the TGI [24] was 20.9 µM. It also gave a GI50 [25] of 4.03 µM, a TGI [25] of 13.5 µM and a GI50 [26] of 2.57 µM. It also gave a TGI [26] of 10.5 µM, a GI50 [27] of 12.5 µM and a TGI [27] of 30.1 µM. It also gave a GI50 [28] of 6.1 µM, a TGI [28] of 19.2 µM and a GI50 [29] of 3.18 µM. The TGI [29] was 9.36 µM, the GI50 [30] was 2.88 µM and the TGI [30] was 8.81 µM. It also gave a GI50 [31] of 6.03 µM, a TGI [31] of 19.7 µM and a GI50 [32] of 3.23 µM. It also gave a TGI [32] of 11.3 µM, a GI50 [33] of 8.71 µM and a TGI [33] of 28.1 µM. The GI50 [34] was 13.4 µM, the TGI [34] was 27.1 µM and the GI50 [35] was 10.7 µM. It also gave a TGI [35] of 28.8 µM, a GI50 [36] of 4.25 µM and a TGI [36] of 16.7 µM. It also gave a GI50 [37] of 3.74 µM, a TGI [37] of 17 µM and a GI50 [38] of 14.1 µM. For the same compound, the TGI [38] was 36.1 µM, the GI50 [39] was 4.13 µM and the TGI [39] was 16.4 µM. It also gave a GI50 [40] of 4.98 µM, a TGI [40] of 17.4 µM and a GI50 [41] of 20.1 µM. The TGI [41] was 38 µM, the GI50 [42] was 7.15 µM and the TGI [42] was 20.7 µM. The GI50 [43] was 16.7 µM, the TGI [43] was 45 µM and the GI50 [44] was 5.33 µM. It also gave a TGI [44] of 20 µM, a GI50 [45] of 17.1 µM and a TGI [45] of 35.2 µM. The GI50 [46] was 2.38 µM, the TGI [46] was 5.43 µM and the GI50 [47] was 15.4 µM. It also gave a TGI [47] of 33.6 µM, a GI50 [48] of 13.6 µM and a TGI [48] of 31.6 µM. For the same compound, the GI50 [49] was 2.26 µM, the TGI [49] was 6.96 µM and the GI50 [50] was 13.2 µM. It also gave a TGI [50] of 30.5 µM, a GI50 [51] of 10.3 µM and a TGI [51] of 29.9 µM. For the same compound, the GI50 [52] was 7.38 µM, the TGI [52] was 20.1 µM and the GI50 [53] was 5.37 µM. For the same compound, the TGI [53] was 16.8 µM, the GI50 [54] was 14 µM and the TGI [54] was 30.2 µM. For the same compound, the GI50 [55] was 3.98 µM, the TGI [55] was 16.1 µM and the GI50 [56] was 5.65 µM. For the same compound, the TGI [56] was 18.8 µM.
Compound COc1ccc(/C=C/c2c(C(=O)/C=C/c3ccc(C(F)(F)F)cc3)c(C)nc3ccccc23)cc1 has a GI50 [1] of 1.61 µM, a TGI [1] of 3.02 µM and a GI50 [2] of 1.77 µM. The TGI [2] was 3.24 µM, the GI50 [3] was 2.71 µM and the TGI [3] was 8.57 µM. The GI50 [4] was 1.5 µM, the TGI [4] was 2.84 µM and the GI50 [5] was 1.8 µM. The TGI [5] was 4 µM, the GI50 [6] was 1.13 µM and the TGI [6] was 2.56 µM. For the same compound, the GI50 [7] was 0.425 µM, the TGI [7] was > 100 µM and the GI50 [8] was 2.1 µM. It also gave a TGI [8] of 4.67 µM, a GI50 [9] of 1.76 µM and a TGI [9] of 3.71 µM. It also gave a GI50 [10] of 1.72 µM, a TGI [10] of 4.49 µM and a GI50 [11] of 1.51 µM. For the same compound, the TGI [11] was 3.07 µM, the GI50 [12] was 0.414 µM and the TGI [12] was 1.97 µM. The GI50 [13] was 1.14 µM, the TGI [13] was 4.59 µM and the GI50 [57] was 1.92 µM. It also gave a TGI [57] of 5.67 µM, a GI50 [15] of 1.62 µM and a TGI [15] of 3.59 µM. The GI50 [16] was 2.87 µM, the TGI [16] was 8.29 µM and the GI50 [17] was 1.13 µM. The TGI [17] was 6.6 µM, the GI50 [18] was 0.466 µM and the TGI [18] was 2.39 µM. For the same compound, the GI50 [58] was 2.05 µM, the TGI [58] was > 100 µM and the GI50 [19] was 2.12 µM. It also gave a TGI [19] of 5.09 µM, a GI50 [20] of 1.37 µM and a TGI [20] of 2.74 µM. It also gave a GI50 [22] of 1.71 µM, a TGI [22] of 3.19 µM and a GI50 [23] of 1 µM. The TGI [23] was 3.4 µM, the GI50 [25] was 1.89 µM and the TGI [25] was 3.72 µM. The GI50 [26] was 1.04 µM, the TGI [26] was > 100 µM and the GI50 [27] was 1.85 µM. For the same compound, the TGI [27] was 4.01 µM, the GI50 [29] was 1.87 µM and the TGI [29] was 4.22 µM. It also gave a GI50 [30] of 1.67 µM, a TGI [30] of 5.69 µM and a GI50 [31] of 2.36 µM. It also gave a TGI [31] of 7.46 µM, a GI50 [32] of 1.64 µM and a TGI [32] of 3.48 µM. For the same compound, the GI50 [33] was 1.81 µM, the TGI [33] was 3.67 µM and the GI50 [34] was 2.13 µM. For the same compound, the TGI [34] was 5.53 µM, the GI50 [35] was 2.22 µM and the TGI [35] was > 100 µM. The GI50 [36] was 1.83 µM, the TGI [36] was 5.58 µM and the GI50 [37] was 0.807 µM. For the same compound, the TGI [37] was 7.65 µM, the GI50 [38] was 1.74 µM and the TGI [38] was 3.52 µM. For the same compound, the GI50 [39] was 1.8 µM, the TGI [39] was 3.67 µM and the GI50 [40] was 1.71 µM. The TGI [40] was 3.28 µM, the GI50 [41] was 1.85 µM and the TGI [41] was 3.34 µM. The GI50 [42] was 2.05 µM, the TGI [42] was 4.64 µM and the GI50 [43] was 1.82 µM. The TGI [43] was 3.47 µM, the GI50 [44] was 1.68 µM and the TGI [44] was 3.09 µM. It also gave a GI50 [45] of 2.24 µM, a TGI [45] of 5.82 µM and a GI50 [46] of 2.02 µM. The TGI [46] was 5.66 µM, the GI50 [47] was 1.62 µM and the TGI [47] was 3.05 µM. It also gave a GI50 [48] of 1.43 µM, a TGI [48] of 2.85 µM and a GI50 [49] of 0.599 µM. For the same compound, the TGI [49] was > 100 µM, the GI50 [50] was 1.48 µM and the TGI [50] was 4.7 µM. It also gave a GI50 [51] of 1.31 µM, a TGI [51] of 3.78 µM and a GI50 [52] of 2.56 µM. The TGI [52] was 4.38 µM, the GI50 [53] was 1.53 µM and the TGI [53] was 3.28 µM. The GI50 [54] was 2.09 µM, the TGI [54] was 4.52 µM and the GI50 [55] was 1.6 µM. It also gave a TGI [55] of 3.42 µM, a GI50 [56] of 1.11 µM and a TGI [56] of 2.33 µM.
